Measured values: publication PMC12624573, “The antigen presentation landscape of cytokine-stressed human pancreatic islets” (Cell reports, 2025)

What follows are substances tested on CD8+ T cells from PBMC (assay: IFN-γ ELISpot, PBMC-derived in vitro expanded CD8+ T cell lines). Settings: not given.
Assay type: cell-based, human
Design: key to T cell recognition by PBMC from a T1D donor: E: T cell recognition by PBMC from a T1D donor was tested and verified; see Figure 5

| Substance | IFN-γ ELISpot response of expanded CD8+ T cells |
| --- | --- |
| TLDGSLHAV [peptide 79, 11] | Responses |

Same assay, conditions: A2 Set Peptides; PBMC T cell lines; responding donors/donors tested

| Substance | T1D Donor T cell response | non-T1D Donor T cell response |
| --- | --- | --- |
| RYLEQLHQL [compound 135, 17] | 0/4 | 0/2 |
| SLAEGLRTV [compound 120, 16] | 0/4 | 0/2 |
| SLIGHLQTL [compound 95, 13] | 1/4 | 0/2 |
| SLLQGSPHL [compound 122, 16] | 0/4 | 0/2 |
| TLDGSLHAV [peptide 79, 11] | 1/5 | 0/2 |
| TLVEAIKQV [compound 113, 15] | – | 0/2 |
| VIANEIEKV [compound 88, 12] | 0/5 | 0/2 |
| VLAPRVLRA [compound 126, 16] | 0/4 | 0/2 |
| VLHEGTNFV [compound 104, 14] | 0/4 | 0/2 |
| YINEKNVAL [compound 105, 14] | 0/4 | 0/2 |
| YLHSQVVSV [compound 139, 18] | 0/4 | 0/2 |
| YLKHRLIVV [compound 134, 17] | 0/4 | 0/2 |
| YLLEKNRVV [compound 117, 15] | 0/4 | 0/2 |
| YLLEKSRVV [compound 118, 15] | 0/4 | 0/2 |

Same assay, conditions: HPAP-A2 Pool Peptides; PBMC T cell lines; responding donors/donors tested

| Substance | T1D Donor T cell response | non-T1D Donor T cell response |
| --- | --- | --- |
| TAISRIYTV [compound 158] | 0/4 | 0/4 |
| VLAFLVHEL [compound 156] | 1/5 | 0/4 |

Same assay, conditions: MHC-I peptides; superscript E on the peptide; F = verified with C1R-A2 cells

| Substance | T cell recognition by PBMC from a T1D donor |
| --- | --- |
| SLIGHLQTL | SLIGHLQTL ^ E |
| TLDGSLHAV | TLDGSLHAV ^ E |

These substances were tested on CD4+ T cells from PBMC (assay: IFN-γ ELISpot, PBMC-derived in vitro expanded CD4+ T cell lines). Settings: DR3/DQ Set Peptides; PBMC T cell lines; responding donors/donors tested.
Assay type: cell-based, human
Design: key to T cell recognition by PBMC from a T1D donor (mark E) / T cell recognition by PBMC from a T1D donor: E: T cell recognition by PBMC from a T1D donor was tested and verified; see Figure 5

| Substance | T1D Donor T cell response | non-T1D Donor T cell response |
| --- | --- | --- |
| AELEDDFKEGYLE [peptide 2] | 2/4 | 1/2 |
| APGYLAITKKVAVPY [compound 30] | 3/4 | 1/2 |
| DDALVRQDAQDLYEAG [compound 9] | 0/4 | 0/2 |
| DLNGDLTATREEF [compound 5] | 0/4 | 0/2 |
| EDYYVSKSAVVFGG [compound 28] | 2/4 | 1/2 |
| ELSAERPLNEQIAEAE [peptide 32] | 1/4 | 0/2 |
| ETDKEQLTAEAKELRQK [peptide 6] | 1/4 | 0/2 |
| FQYIIDNKGIDSDAS [compound 31] | 1/4 | 0/2 |
| GKRAIILETRQHRLF [peptide 1] | 0/4 | 0/2 |
| GREEITYDTPFKREKS [compound 16] | 3/4 | 0/2 |
| GSDDWAYDQGIRYS [compound 21] | 3/4 | 0/2 |
| GVSDQSFQVEEAKRIKQ [compound 25] | 0/4 | 0/2 |
| IDQINTDLNLERSHA [compound 17] | 0/4 | 0/2 |

Same assay, conditions: HPAP-DR3 Pool Peptides; PBMC T cell lines; responding donors/donors tested

| Substance | T1D Donor T cell response | non-T1D Donor T cell response |
| --- | --- | --- |
| APGYLAITKKVAVPY [compound 151] | 0/4 | 1/4 |
| GFPTIYFSPANKKLNPK [compound 154] | 0/4 | 0/4 |
| IDSLIELSTKLHLPADD [compound 153] | 0/4 | 0/4 |

Same assay, conditions: MHC-II peptides; superscript E on the peptide; G = verified with QBL cells

| Substance | T cell recognition by PBMC from a T1D donor |
| --- | --- |
| AVPEEEGPTVVLXPHPSLG [AVPEEEGPTVVLXPHPSLG (X=deamindated N=asp)] | AVPEEEGPTVVLXPHPSLG^E,G (X=deamindated N=asp) |
| AVPEEEGPTVVLXPHPSLG [AVPEEEGPTVVLXPHPSLG (X=deamindated N=isoasp)] | AVPEEEGPTVVLXPHPSLG^E,G (X=deamindated N=isoasp) |

Same assay, conditions: MHC-II peptides; tested and verified, see Figure 5

| Substance | T cell recognition by PBMC from a T1D donor (mark E) |
| --- | --- |
| AELEDDFKEGYLE | AE LEDDFKEGY LE ^ E |
| APGY LAITKKVAV PY | E |
| EDYYVSKSAVVFGG | ED YYVSKSAVV FGG ^ E |
| ELSAERPLNEQIAEAE | ELSAERP LNEQIAEAE ^ E |
| ETDKEQLTAEAKELRQK | ETDKEQ LTAEAKELR QK ^ E |
| FQYIIDNKGIDSDAS | FQ YIIDNKGID SDAS ^ E |
| GREEITYDTPFKREKS | GREE ITYDTPFKR EKS ^ E |
| GSDDWAYDQGIRYS | GSDD WAYDQGIRY S ^ E |

Same assay, conditions: PTM and unmodified native Pool Peptides (pool PTM 1), long peptides; PBMC T cell lines; responding donors/donors tested

| Substance | T1D Donor T cell response | non-T1D Donor T cell response |
| --- | --- | --- |
| AEDLQVGEVELGGGPGAGSLQPL [145-1, PTM peptide, E=deamidated Q=glutamic acid, pool PTM DR3] | 0/4 | 0/4 |
| AEDLQVGQVELGGGPGAGSLQPL [compound 145, non-modified native peptide, pool PTM DR3] | 0/4 | 0/4 |
| AVPEEEGPTVVLNPHPSLG [peptide 148, non-modified native peptide from CHGA, pool PTM DR3] | 0/4 | 0/4 |
| ELSAERPLNEQIAEAE [compound 144, non-modified native peptide, pool PTM DR3] | 0/4 | 0/4 |
| ELXAERPLNEQIAEAE [144-1, PTM peptide, X=dehydroS=dehydroAla, pool PTM DR3] | 0/4 | 0/4 |
| GSHLVEALYLVCGEXGF [146-2] | 0/4 | 0/4 |

Same assay, conditions: SEC (Secretory) DR3 Peptides Set; PBMC T cell lines; responding donors/donors tested

| Substance | T1D Donor T cell response | non-T1D Donor T cell response |
| --- | --- | --- |
| AAIQDGLAKGENDETVSNT [compound 190, secretory hormone eluted peptide, pool SEC DR3] | 0/4 | 0/4 |
| DDPDGLHQLDGTPLTAED [compound 189, secretory hormone eluted peptide from SCG3, pool SEC DR3] | 0/4 | 1/4 |
| DNMNDNFLEGEEENELTLN [compound 185, secretory hormone eluted peptide, pool SEC DR3] | 0/4 | 0/4 |
| ELSAERPLNEQIAEAE [compound 186, secretory hormone eluted peptide from SCG3, pool SEC DR3] | 0/4 | 1/4 |
| GRGGEPRAYFMSDTREE [compound 183, secretory hormone eluted peptide, pool SEC DR3] | 0/4 | 0/4 |
| GSEEYRAPRPQSEESWDEED [compound 181, secretory hormone eluted peptide, pool SEC DR3] | 0/4 | 1/4 |
| HPQGAWKELDRNY [compound 184, secretory hormone eluted peptide from SCG1, pool SEC DR3] | 0/4 | 1/4 |

Same assay, conditions: T1D donors, PBMC-derived lines (Figure 5J)

| Substance | Number of donors whose CD4 T cells recognized the peptide (IFN-γ ELISpot) |
| --- | --- |
| AELEDDFKEGYLE [peptide 2] | three of the donors |
| APGYLAITKKVAVPY [compound 30] | three of the donors |
| GREEITYDTPFKREKS [compound 16] | three of the donors |

Same assay, conditions: control donor LSLP-074; frequencies ∼10-fold lower than for T1D-004 (Figures 5E, 5F, S5B)

| Substance | IFN-γ ELISpot response of expanded CD4+ T cells |
| --- | --- |
| AELEDDFKEGYLE [peptide 2] | responded |

Same assay, conditions: control donor LSLP-153; line expanded with megapool HPAP-DR3 + SEC-DR3, tested with individual peptides (Figure S5C)

| Substance | IFN-γ ELISpot response of expanded CD4 T cells |
| --- | --- |
| APGYLAITKKVAVPY [compound 151] | positive response |
| DDPDGLHQLDGTPLTAED [compound 189, secretory hormone eluted peptide from SCG3, pool SEC DR3] | IFN-γ responses |
| ELSAERPLNEQIAEAE [compound 186, secretory hormone eluted peptide from SCG3, pool SEC DR3] | IFN-γ responses |
| HPQGAWKELDRNY [compound 184, secretory hormone eluted peptide from SCG1, pool SEC DR3] | IFN-γ responses |
